Results published in article PMC7179274, “6′-β-Fluoro-Homoaristeromycin and 6′-Fluoro-Homoneplanocin A Are Potent Inhibitors of Chikungunya Virus Replication through Their Direct Effect on Viral Nonstructural Protein 1” (Antimicrobial Agents and Chemotherapy, 2020).
“Also recorded” adds a separate entry of the source. Like-named read-outs stand apart in the source and are kept apart here.

Experiments:
[1] = test system: SFV; experiment: Viral load reduction (single-cycle dose response) assay, SFV; assay type: cell-based, Semliki Forest virus; conditions: 12.5 μM, VeroE6, MOI 5, 8 hpi, plaque assay
[2] = test system: VeroE6 cells; experiment: Cytotoxicity in uninfected cells (MTS/PMS) of the CPE reduction assay
[3] = test system: rCHIKV G230R+K299E and rCHIKV G230R+K299E+*524R; assay type: cell-based, Chikungunya virus; conditions: 10 μM, both mutant viruses, MOI 1
[4] = test system: SFV; experiment: CPE reduction assay, SFV
[5] = molecular target: host enzyme SAH hydrolase; parameters: method as in PMID 26010585; conditions: in vitro; read-out: 50% inhibitory concentration, SAH hydrolase; cited from earlier work
[6] = test system: CHIKV; experiment: Viral load reduction (single-cycle dose response) assay, CHIKV
[7] = test system: FHNA-resistant CHIKV variants; assay type: cell-based; conditions: for Fold resistance: EC50 variant/EC50 wt; for EC50: read-out: Mean EC50 ± SD
[8] = test system: SINV; experiment: CPE reduction assay, SINV; conditions: VeroE6 cells, MOI 0.025
[9] = test system: rCHIKV mutants; experiment: microbe, parasite or virus in culture; assay type: cell-based, Chikungunya virus; conditions: for EC50: read-out: Mean EC50 ± SD
[10] = molecular target: T1, SFV nsP1 K231R+K300E (Semliki forest virus, UniProt P08411, K231R/K300E); assay type: biochemical
T1 sequence (P08411 1-537 K231R/K300E): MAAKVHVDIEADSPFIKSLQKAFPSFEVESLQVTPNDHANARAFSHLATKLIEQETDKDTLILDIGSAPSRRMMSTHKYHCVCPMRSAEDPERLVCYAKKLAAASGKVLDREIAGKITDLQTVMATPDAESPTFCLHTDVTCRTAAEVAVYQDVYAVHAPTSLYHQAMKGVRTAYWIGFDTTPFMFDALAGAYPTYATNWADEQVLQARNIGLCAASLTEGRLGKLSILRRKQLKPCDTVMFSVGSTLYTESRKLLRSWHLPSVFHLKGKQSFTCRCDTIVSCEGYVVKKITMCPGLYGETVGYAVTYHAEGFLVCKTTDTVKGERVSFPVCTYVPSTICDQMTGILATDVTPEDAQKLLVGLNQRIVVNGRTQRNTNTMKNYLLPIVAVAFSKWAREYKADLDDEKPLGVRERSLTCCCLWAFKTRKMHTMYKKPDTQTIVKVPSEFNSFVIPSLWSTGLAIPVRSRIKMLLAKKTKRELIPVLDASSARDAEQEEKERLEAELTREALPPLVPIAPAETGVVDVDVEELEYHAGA

[11] = test system: CHIKV; experiment: CPE reduction assay, CHIKV
[12] = test system: CHIKV; experiment: Time-of-drug-addition assay, CHIKV; conditions: 10 μM, pretreated or treated early (−12 to 4 h)

Nc1ncnc2c1ncn2C1C(F)=C(CCO)C(O)C1O (stereo not shown) [FHNA, 6′-fluoro-homoneplanocin A]
Reduction of SFV infectious progeny [1]: > 1 log10
CC50 ([2]; read-out: CC50 (CHIKV assay), CHIKV assay format): > 250000 nM
CC50 ([2]; read-out: CC50 (SFV assay), SFV assay format): > 250000 nM
CC50 ([2]; read-out: CC50 (SINV assay), SINV assay format): > 250000 nM
Infectious progeny titers lower than untreated controls ([3]; 12 hpi): at least 1.5 log10
Infectious progeny titers lower than untreated controls ([3]; 24 hpi): ≥ 1.2 log10
SI (SFV) ([4]; CC50/EC50): >48
EC50 ([4]; read-out: EC50 (SFV), VeroE6 cells, MOI 0.025, MTS at 40 hpi, mean ± SD): 5200 ± 3200 nM
IC50 [5]: 910 nM
Reduction of CHIKV infectious progeny titers vs infected untreated cells ([6]; 5 μM, VeroE6, MOI 1, 20 hpi, plaque assay): 2.5 log10
Levels of genomic, subgenomic and negative-strand CHIKV RNA ([6]; 0.1 to 10 μM, 8 hpi, in-gel hybridization): reduced in a dose-dependent manner
Fold resistance ([7]; CHIKV wt): 1
EC50 ([7]; CHIKV wt, VeroE6, MOI 0.05): 140 ± 10 nM
Fold resistance ([7]; variant 1a): 100
EC50 ([7]; variant 1a): 14100 ± 10 nM
Fold resistance ([7]; variant 1b): 24
EC50 ([7]; variant 1b): 3400 ± 600 nM
Fold resistance ([7]; variant 2a): 12
EC50 ([7]; variant 2a): 1700 ± 700 nM
Fold resistance ([7]; variant 2b): 21
EC50 ([7]; variant 2b): 3000 ± 600 nM
Fold resistance ([7]; variant 3): 9
EC50 ([7]; variant 3): 1300 ± 800 nM
Fold resistance ([7]; variant 4): 27
EC50 ([7]; variant 4): 3800 ± 300 nM
Fold resistance ([7]; variant 5): 13
EC50 ([7]; variant 5): 1800 ± 800 nM
Protection against SINV infection [8]: did not confer protection; also recorded: not sensitive
Fold resistance ([9]; rCHIKV nsP1-G230R + nsP1-K299E + nsP3-*524R, EC50 mutant/EC50 wt): 122
EC50 ([9]; rCHIKV nsP1-G230R + nsP1-K299E + nsP3-*524R): 25600 ± 100 nM
Fold resistance ([9]; rCHIKV nsP1-G230R + nsP1-K299E, EC50 mutant/EC50 wt): 87
EC50 ([9]; rCHIKV nsP1-G230R + nsP1-K299E): 18200 ± 4200 nM
Fold resistance ([9]; rCHIKV nsP1-G230R, EC50 mutant/EC50 wt): 2
EC50 ([9]; rCHIKV nsP1-G230R): 500 ± 330 nM
Fold resistance ([9]; rCHIKV nsP1-K299E, EC50 mutant/EC50 wt): 2
EC50 ([9]; rCHIKV nsP1-K299E): 500 ± 80 nM
Fold resistance ([9]; rCHIKV nsP1-L455P, EC50 mutant/EC50 wt): 5
EC50 ([9]; rCHIKV nsP1-L455P): 1100 ± 1100 nM
Fold resistance ([9]; rCHIKV nsP1-R171Q + nsP2-A511S + nsP3-H342Q, EC50 mutant/EC50 wt): 49
EC50 ([9]; rCHIKV nsP1-R171Q + nsP2-A511S + nsP3-H342Q): 10200 ± 2600 nM
Fold resistance ([9]; rCHIKV nsP1-R171Q + nsP2-A511S, EC50 mutant/EC50 wt): 33
EC50 ([9]; rCHIKV nsP1-R171Q + nsP2-A511S): 6900 ± 2600 nM
Fold resistance ([9]; rCHIKV nsP1-R171Q + nsP3-A137V, EC50 mutant/EC50 wt): 18
EC50 ([9]; rCHIKV nsP1-R171Q + nsP3-A137V): 3900 ± 1300 nM
Fold resistance ([9]; rCHIKV nsP1-R171Q, EC50 mutant/EC50 wt): 3
EC50 ([9]; rCHIKV nsP1-R171Q): 580 ± 370 nM
Fold resistance ([9]; rCHIKV nsP2-A511S + nsP3-H342Q, EC50 mutant/EC50 wt): 1
Fold resistance ([9]; rCHIKV nsP2-A511S, EC50 mutant/EC50 wt): 9
EC50 ([9]; rCHIKV nsP2-A511S): 1900 ± 600 nM
Fold resistance ([9]; rCHIKV nsP2-T675A + nsP3-H342Q (H342Q reverted back to wt), EC50 mutant/EC50 wt): 36
EC50 ([9]; rCHIKV nsP2-T675A + nsP3-H342Q (H342Q reverted back to wt)): 7600 ± 200 nM
Fold resistance ([9]; rCHIKV nsP2-T675A + nsP3-H342Q + nsP3-*524R, EC50 mutant/EC50 wt): 48
EC50 ([9]; rCHIKV nsP2-T675A + nsP3-H342Q + nsP3-*524R): 10100 ± 6800 nM
Fold resistance ([9]; rCHIKV nsP2-T675A, EC50 mutant/EC50 wt): 4
EC50 ([9]; rCHIKV nsP2-T675A): 800 ± 80 nM
Fold resistance ([9]; rCHIKV nsP3-*524R, EC50 mutant/EC50 wt): 40
EC50 ([9]; rCHIKV nsP3-*524R): 8500 ± 2300 nM
Fold resistance ([9]; rCHIKV nsP3-G177R, EC50 mutant/EC50 wt): 2
EC50 ([9]; rCHIKV nsP3-G177R): 510 ± 20 nM
Fold resistance ([9]; rCHIKV nsP3-H342Q, EC50 mutant/EC50 wt): 5
EC50 ([9]; rCHIKV nsP3-H342Q): 940 ± 10 nM
Fold resistance ([9]; rCHIKV wt, EC50 recombinant mutant/EC50 wt): 1
EC50 ([9]; rCHIKV wt, VeroE6, MOI 0.05): 210 ± 70 nM
Response of mutant vs wt SFV nsP1 to treatment ([10]; 50 μM to 1 mM, standard conditions): no difference between wt and mutant SFV nsP1 proteins
Further reduction in signal in the presence of NAD+ ([10]; 1 mM compound + 1 mM NAD+, absence of DTT): about 6%
Reduction of the signal ([10]; 1 mM compound + 1 mM NAD+, nonreducing conditions): 25%
Reduction in signal ([10]; 1 mM, nonreducing conditions (absence of DTT)): about 20%
SI (CHIKV) ([11]; CC50/EC50): >1,000
EC50 ([11]; read-out: EC50 (CHIKV), VeroE6 cells, MOI 0.005, MTS at 96 hpi, mean ± SD): 180 ± 110 nM
CHIKV specific infectivity (genome copies vs infectious virus yield) [12]: decrease in specific infectivity; also recorded: reduction in CHIKV-specific infectivity
